Values joined by “and” are separate entries in the source; they are usually repeats but may differ in a detail not shown here. Equal entries are not always repeated.

Common to all, as to assay: cell-based
The target in one assay is hNav1.5 (Homo sapiens, UniProt Q14524). Conditions: IonWorks Quattro; read-out: IC50 Nav1.5. In general terms: Patch clamp records ionic current or voltage across a cell membrane.
Another assay has as its target hNav1.7 (Homo sapiens, UniProt Q15858). Conditions: IonWorks Quattro; read-out: IC50 Nav1.7.
The next assay addresses hNav1.3 (Homo sapiens, UniProt Q9NY46). The settings on record: IonWorks Quattro; read-out: IC50 Nav1.3.
A further assay deals with hNav1.4 (Homo sapiens, UniProt P35499). The settings on record: for IC50: IonWorks Quattro, read-out: IC50 Nav1.4; for Nav1.4/Nav1.7: ratio of IonWorks Quattro IC50 values.

Sequence of hNav1.5 (Q14524 whole entry): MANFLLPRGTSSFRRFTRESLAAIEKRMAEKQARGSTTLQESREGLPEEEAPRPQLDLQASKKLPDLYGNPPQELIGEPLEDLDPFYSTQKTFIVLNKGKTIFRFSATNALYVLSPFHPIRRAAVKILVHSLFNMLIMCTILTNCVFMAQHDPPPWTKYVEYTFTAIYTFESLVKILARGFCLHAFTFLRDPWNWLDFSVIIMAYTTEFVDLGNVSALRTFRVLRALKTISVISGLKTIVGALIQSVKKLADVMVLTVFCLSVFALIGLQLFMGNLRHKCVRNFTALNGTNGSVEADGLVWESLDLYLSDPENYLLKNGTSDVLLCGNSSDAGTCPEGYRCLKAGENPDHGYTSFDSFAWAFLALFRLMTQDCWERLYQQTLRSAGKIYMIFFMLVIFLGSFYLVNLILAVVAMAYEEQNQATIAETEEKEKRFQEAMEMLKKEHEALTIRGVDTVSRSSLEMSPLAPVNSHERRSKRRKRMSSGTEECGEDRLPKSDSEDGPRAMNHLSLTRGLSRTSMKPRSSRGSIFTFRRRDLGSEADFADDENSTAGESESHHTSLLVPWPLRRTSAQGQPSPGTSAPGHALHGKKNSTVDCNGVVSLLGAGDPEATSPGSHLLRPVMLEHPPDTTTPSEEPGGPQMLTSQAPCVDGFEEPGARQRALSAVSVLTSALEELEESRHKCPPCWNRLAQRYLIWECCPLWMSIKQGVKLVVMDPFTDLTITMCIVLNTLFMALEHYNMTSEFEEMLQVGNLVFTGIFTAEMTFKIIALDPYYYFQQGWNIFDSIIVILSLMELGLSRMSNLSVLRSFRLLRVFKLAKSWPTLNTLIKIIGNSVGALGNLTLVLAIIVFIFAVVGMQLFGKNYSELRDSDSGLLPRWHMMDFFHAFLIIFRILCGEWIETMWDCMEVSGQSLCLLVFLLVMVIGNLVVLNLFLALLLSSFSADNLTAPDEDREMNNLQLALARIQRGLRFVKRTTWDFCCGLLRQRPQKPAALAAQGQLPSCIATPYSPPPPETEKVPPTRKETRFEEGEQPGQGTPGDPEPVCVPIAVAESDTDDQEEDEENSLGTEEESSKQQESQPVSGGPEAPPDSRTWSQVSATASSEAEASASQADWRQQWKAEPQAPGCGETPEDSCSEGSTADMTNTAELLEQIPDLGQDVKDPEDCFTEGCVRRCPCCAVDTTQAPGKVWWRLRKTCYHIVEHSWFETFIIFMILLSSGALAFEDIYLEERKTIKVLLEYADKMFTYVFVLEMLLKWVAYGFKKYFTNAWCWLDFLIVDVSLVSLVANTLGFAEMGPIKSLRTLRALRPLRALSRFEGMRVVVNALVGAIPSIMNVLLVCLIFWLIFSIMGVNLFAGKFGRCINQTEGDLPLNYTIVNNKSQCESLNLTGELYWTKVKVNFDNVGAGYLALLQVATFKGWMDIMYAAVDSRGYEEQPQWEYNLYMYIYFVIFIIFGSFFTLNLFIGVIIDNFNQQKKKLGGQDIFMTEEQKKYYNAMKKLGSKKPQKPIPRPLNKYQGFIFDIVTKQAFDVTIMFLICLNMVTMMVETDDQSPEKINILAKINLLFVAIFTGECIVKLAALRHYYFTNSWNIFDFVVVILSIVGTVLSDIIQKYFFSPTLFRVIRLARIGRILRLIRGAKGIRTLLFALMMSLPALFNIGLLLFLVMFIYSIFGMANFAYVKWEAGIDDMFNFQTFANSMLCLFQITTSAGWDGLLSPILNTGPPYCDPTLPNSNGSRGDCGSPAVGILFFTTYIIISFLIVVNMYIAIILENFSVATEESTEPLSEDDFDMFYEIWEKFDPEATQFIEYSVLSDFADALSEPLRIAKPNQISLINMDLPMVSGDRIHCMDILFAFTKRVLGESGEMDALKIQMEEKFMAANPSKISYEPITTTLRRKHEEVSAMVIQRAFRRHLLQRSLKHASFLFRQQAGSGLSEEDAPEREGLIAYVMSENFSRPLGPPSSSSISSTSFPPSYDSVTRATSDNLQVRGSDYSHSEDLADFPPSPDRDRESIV
Sequence of hNav1.3 (Q9NY46 whole entry): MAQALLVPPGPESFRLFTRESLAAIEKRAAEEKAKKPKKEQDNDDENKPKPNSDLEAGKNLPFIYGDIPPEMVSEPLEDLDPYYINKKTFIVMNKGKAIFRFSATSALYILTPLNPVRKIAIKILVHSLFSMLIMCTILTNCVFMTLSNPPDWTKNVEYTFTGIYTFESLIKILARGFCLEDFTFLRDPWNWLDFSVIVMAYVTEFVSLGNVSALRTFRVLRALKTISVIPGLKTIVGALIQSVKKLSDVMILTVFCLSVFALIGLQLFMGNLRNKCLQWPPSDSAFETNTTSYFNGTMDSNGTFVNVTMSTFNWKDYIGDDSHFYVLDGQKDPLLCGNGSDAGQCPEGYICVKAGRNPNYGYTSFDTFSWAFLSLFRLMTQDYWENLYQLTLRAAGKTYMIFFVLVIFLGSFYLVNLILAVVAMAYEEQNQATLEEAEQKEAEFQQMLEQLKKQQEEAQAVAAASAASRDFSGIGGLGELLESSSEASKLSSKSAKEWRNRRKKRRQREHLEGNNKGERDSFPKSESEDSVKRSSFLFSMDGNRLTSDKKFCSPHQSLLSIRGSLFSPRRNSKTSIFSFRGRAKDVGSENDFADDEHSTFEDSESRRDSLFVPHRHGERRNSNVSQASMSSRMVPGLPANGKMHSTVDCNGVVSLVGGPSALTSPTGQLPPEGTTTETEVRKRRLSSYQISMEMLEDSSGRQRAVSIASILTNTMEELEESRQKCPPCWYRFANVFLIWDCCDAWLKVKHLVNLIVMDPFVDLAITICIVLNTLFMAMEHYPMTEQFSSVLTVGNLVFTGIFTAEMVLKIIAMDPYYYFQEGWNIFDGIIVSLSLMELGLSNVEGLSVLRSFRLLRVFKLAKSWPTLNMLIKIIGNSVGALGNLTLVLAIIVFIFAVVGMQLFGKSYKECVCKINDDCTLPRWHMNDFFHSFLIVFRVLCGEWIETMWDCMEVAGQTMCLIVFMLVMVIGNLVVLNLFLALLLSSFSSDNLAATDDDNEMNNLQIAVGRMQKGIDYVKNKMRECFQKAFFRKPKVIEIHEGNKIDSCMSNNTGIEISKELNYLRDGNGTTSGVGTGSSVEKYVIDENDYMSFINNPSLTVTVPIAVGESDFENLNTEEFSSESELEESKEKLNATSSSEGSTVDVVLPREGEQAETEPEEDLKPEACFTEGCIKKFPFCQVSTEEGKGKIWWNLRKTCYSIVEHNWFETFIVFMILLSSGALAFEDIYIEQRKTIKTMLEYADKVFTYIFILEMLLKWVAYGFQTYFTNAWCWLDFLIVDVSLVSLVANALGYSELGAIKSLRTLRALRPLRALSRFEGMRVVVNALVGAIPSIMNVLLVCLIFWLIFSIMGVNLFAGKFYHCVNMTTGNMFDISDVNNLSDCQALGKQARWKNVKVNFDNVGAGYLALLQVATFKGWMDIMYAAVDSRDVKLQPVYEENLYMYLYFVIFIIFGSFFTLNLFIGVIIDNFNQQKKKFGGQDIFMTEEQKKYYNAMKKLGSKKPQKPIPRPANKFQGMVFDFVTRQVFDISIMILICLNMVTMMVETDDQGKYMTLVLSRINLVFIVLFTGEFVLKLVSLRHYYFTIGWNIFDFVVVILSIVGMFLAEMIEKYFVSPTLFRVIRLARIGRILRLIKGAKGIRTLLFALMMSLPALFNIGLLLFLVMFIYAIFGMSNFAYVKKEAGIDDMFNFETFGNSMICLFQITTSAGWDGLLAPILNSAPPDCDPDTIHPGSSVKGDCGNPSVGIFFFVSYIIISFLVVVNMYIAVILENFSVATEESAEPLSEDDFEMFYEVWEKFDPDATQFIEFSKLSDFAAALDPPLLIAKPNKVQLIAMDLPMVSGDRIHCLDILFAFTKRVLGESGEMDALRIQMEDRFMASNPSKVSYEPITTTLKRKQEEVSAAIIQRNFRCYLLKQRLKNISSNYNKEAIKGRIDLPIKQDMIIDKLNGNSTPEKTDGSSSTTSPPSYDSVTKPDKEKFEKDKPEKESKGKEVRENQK

A word on the IC50: it is the concentration that inhibits the measured activity by half. In the case of `CC[C@H](C)[C@H](NC(=O)[C@@H](NC(=O)[C@H](CCCCN)NC(=O)[C@H](CCCNC(=N)N)NC(=O)[C@@H]1CSSC[C@@H]2NC(=O)[C@H](C)NC(=O)[C@H](CCCNC(=N)N)NC(=O)[C@H](CCCCN)NC(=O)[C@H](CO)NC(=O)[C@H](CC(=O)O)NC(=O)[C@@H]3CSSC[C@H](NC(=O)[C@H](CC(C)C)NC(=O)[C@H](CC(C)C)NC(=O)CNC(=O)[C@H](CCC(=O)O)NC(=O)[C@H](CSSC[C@H](NC(=O)[C@@H](N)Cc4ccc(O)cc4)C(=O)N[C@@H](CCC(N)=O)C(=O)N[C@@H](CCCCN)C(=O)N[C@@H](Cc4c[nH]c5ccccc45)C(=O)N[C@@H](CCSC)C(=O)N[C@@H](Cc4c[nH]c5ccccc45)C(=O)N[C@@H]([C@@H](C)O)C(=O)N3)NC2=O)C(=O)N[C@@H](CCCCN)C(=O)N[C@@H](CC(C)C)C(=O)N[C@@H](Cc2c[nH]c3ccccc23)C(=O)N1)[C@@H](C)CC)C(N)=O` [compound 119], the IC50 is 8.3 µM at hNav1.5, 0.07 µM on hNav1.7, 2.51 µM at hNav1.3 and 1 µM on hNav1.4. The Nav1.4/Nav1.7 at hNav1.4 was 14.

Regarding `CC[C@H](C)[C@H](NC(=O)[C@@H](NC(=O)[C@H](CCCCN)NC(=O)[C@H](CCCNC(=N)N)NC(=O)[C@@H]1CSSC[C@@H]2NC(=O)[C@H](C)NC(=O)[C@H](CCCNC(=N)N)NC(=O)[C@H](CCCCN)NC(=O)[C@H](CO)NC(=O)[C@H](CC(=O)O)NC(=O)[C@@H]3CSSC[C@H](NC(=O)[C@H](C(C)C)NC(=O)[C@H](CC(C)C)NC(=O)CNC(=O)[C@H](CCC(=O)O)NC(=O)[C@H](CSSC[C@H](NC(=O)[C@@H](N)Cc4ccc(O)cc4)C(=O)N[C@@H](CCC(N)=O)C(=O)N[C@@H](CCCCN)C(=O)N[C@@H](Cc4c[nH]c5ccccc45)C(=O)N[C@@H](CCSC)C(=O)N[C@@H](Cc4c[nH]c5ccccc45)C(=O)N[C@@H]([C@@H](C)O)C(=O)N3)NC2=O)C(=O)N[C@@H](CCCCN)C(=O)N[C@@H](CC(C)C)C(=O)N[C@@H](Cc2c[nH]c3ccccc23)C(=O)N1)[C@@H](C)CC)C(N)=O` [compound 120], the IC50 at hNav1.5 came out at 7.1 µM; at hNav1.7, 0.1 µM; at hNav1.3 it was 3.37 µM; on hNav1.4, 3 µM. At hNav1.4, the Nav1.4/Nav1.7 is reported as 31.

As to `CC[C@H](C)[C@H](NC(=O)[C@@H](NC(=O)[C@H](CCCCN)NC(=O)[C@H](CCCNC(=N)N)NC(=O)[C@@H]1CSSC[C@@H]2NC(=O)[C@H](C)NC(=O)[C@H](CCCNC(=N)N)NC(=O)[C@H](CCCCN)NC(=O)[C@H](CO)NC(=O)[C@H](CC(=O)O)NC(=O)[C@@H]3CSSC[C@H](NC(=O)[C@H](CCCNC(N)=O)NC(=O)[C@H](CC(C)C)NC(=O)CNC(=O)[C@H](CCC(=O)O)NC(=O)[C@H](CSSC[C@H](NC(=O)[C@@H](N)Cc4ccc(O)cc4)C(=O)N[C@@H](CCC(N)=O)C(=O)N[C@@H](CCCCN)C(=O)N[C@@H](Cc4c[nH]c5ccccc45)C(=O)N[C@@H](CCSC)C(=O)N[C@@H](Cc4c[nH]c5ccccc45)C(=O)N[C@@H]([C@@H](C)O)C(=O)N3)NC2=O)C(=O)N[C@@H](CCCCN)C(=O)N[C@@H](CC(C)C)C(=O)N[C@@H](Cc2c[nH]c3ccccc23)C(=O)N1)[C@@H](C)CC)C(N)=O` [compound 122], the concentration for half-maximal inhibition (IC50) on hNav1.5 was 6.8 µM; on hNav1.7, 0.04 µM; on hNav1.3 it was 0.35 µM; on hNav1.4, 0.5 µM. Further, the Nav1.4/Nav1.7 at hNav1.4 stood at 15.

In the case of `CCC[C@@H]1NC(=O)[C@H](CC(C)C)NC(=O)CNC(=O)[C@H](CCC(=O)O)NC(=O)[C@@H]2CSSC[C@H](NC(=O)[C@@H](N)Cc3ccc(O)cc3)C(=O)N[C@@H](CCC(N)=O)C(=O)N[C@@H](CCCCN)C(=O)N[C@@H](Cc3c[nH]c4ccccc34)C(=O)N[C@@H](CCSC)C(=O)N[C@@H](Cc3c[nH]c4ccccc34)C(=O)N[C@@H]([C@@H](C)O)C(=O)N[C@H]3CSSC[C@H](NC1=O)C(=O)N[C@@H](CCCCN)C(=O)N[C@@H](CC(C)C)C(=O)N[C@@H](Cc1c[nH]c4ccccc14)C(=O)N[C@H](C(=O)N[C@@H](CCCNC(=N)N)C(=O)N[C@@H](CCCCN)C(=O)N[C@H](C(=O)N[C@H](C(N)=O)[C@@H](C)CC)[C@@H](C)CC)CSSC[C@H](NC(=O)[C@H](C)NC(=O)[C@H](CCCNC(=N)N)NC(=O)[C@H](CCCCN)NC(=O)[C@H](CO)NC(=O)[C@H](CC(=O)O)NC3=O)C(=O)N2` [compound 123], the IC50 on hNav1.5 was 10.4 µM; on hNav1.7, 0.17 µM; on hNav1.3 it was over 5 µM; at hNav1.4, 3.1 µM. For the same compound, the Nav1.4/Nav1.7 at hNav1.4 is on record as 19.

Take `CC[C@H](C)[C@H](NC(=O)[C@@H](NC(=O)[C@H](CCCCN)NC(=O)[C@H](CCCNC(=N)N)NC(=O)[C@@H]1CSSC[C@@H]2NC(=O)[C@H](C)NC(=O)[C@H](CCCNC(=N)N)NC(=O)[C@H](CCCCN)NC(=O)[C@H](CO)NC(=O)[C@H](CC(=O)O)NC(=O)[C@@H]3CSSC[C@H](NC(=O)[C@H](CO)NC(=O)[C@H](CC(C)C)NC(=O)CNC(=O)[C@H](CCC(=O)O)NC(=O)[C@H](CSSC[C@H](NC(=O)[C@@H](N)Cc4ccc(O)cc4)C(=O)N[C@@H](CCC(N)=O)C(=O)N[C@@H](CCCCN)C(=O)N[C@@H](Cc4c[nH]c5ccccc45)C(=O)N[C@@H](CCSC)C(=O)N[C@@H](Cc4c[nH]c5ccccc45)C(=O)N[C@@H]([C@@H](C)O)C(=O)N3)NC2=O)C(=O)N[C@@H](CCCCN)C(=O)N[C@@H](CC(C)C)C(=O)N[C@@H](Cc2c[nH]c3ccccc23)C(=O)N1)[C@@H](C)CC)C(N)=O` [compound 125]: the IC50 on hNav1.5 was 9.2 µM; at hNav1.7, 0.03 µM; at hNav1.3, 0.29 µM; at hNav1.4 it was 0.4 µM. At hNav1.4, the Nav1.4/Nav1.7 stood at 17.

Take `CC[C@H](C)[C@H](NC(=O)[C@H](CCC(=O)O)NC(=O)[C@H](CCCCN)NC(=O)[C@H](CCCNC(=N)N)NC(=O)[C@@H]1CSSC[C@@H]2NC(=O)[C@H](C)NC(=O)[C@H](CCCNC(=N)N)NC(=O)[C@H](CCCCN)NC(=O)[C@H](CO)NC(=O)[C@H](CC(=O)O)NC(=O)[C@@H]3CSSC[C@H](NC(=O)[C@H](CCC(=O)O)NC(=O)[C@H](CC(C)C)NC(=O)CNC(=O)[C@H](CCC(=O)O)NC(=O)[C@H](CSSC[C@H](NC(=O)[C@@H](N)Cc4ccc(O)cc4)C(=O)N[C@@H](CCC(N)=O)C(=O)N[C@@H](CCCCN)C(=O)N[C@@H](Cc4c[nH]c5ccccc45)C(=O)N[C@@H](CCSC)C(=O)N[C@@H](Cc4c[nH]c5ccccc45)C(=O)N[C@@H]([C@@H](C)O)C(=O)N3)NC2=O)C(=O)N[C@@H](CCCCN)C(=O)N[C@@H](CC(C)C)C(=O)N[C@@H](Cc2c[nH]c3ccccc23)C(=O)N1)C(N)=O` [compound 126]: the IC50 was 15.8 µM and 7.5 µM on hNav1.5; 0.95 µM and 1.44 µM at hNav1.7; over 5 µM at hNav1.3; over 5 µM at hNav1.4. In addition, the Nav1.4/Nav1.7 on hNav1.4 was 5 and 3.

As to `CC[C@H](C)[C@H](NC(=O)[C@H](Cc1ccc(C(=O)O)cc1)NC(=O)[C@H](CCCCN)NC(=O)[C@H](CCCNC(=N)N)NC(=O)[C@@H]1CSSC[C@@H]2NC(=O)[C@H](C)NC(=O)[C@H](CCCNC(=N)N)NC(=O)[C@H](CCCCN)NC(=O)[C@H](CO)NC(=O)[C@H](CC(=O)O)NC(=O)[C@@H]3CSSC[C@H](NC(=O)[C@H](CCC(=O)O)NC(=O)[C@H](CC(C)C)NC(=O)CNC(=O)[C@H](CCC(=O)O)NC(=O)[C@H](CSSC[C@H](NC(=O)[C@@H](N)Cc4ccc(O)cc4)C(=O)N[C@@H](CCC(N)=O)C(=O)N[C@@H](CCCCN)C(=O)N[C@@H](Cc4c[nH]c5ccccc45)C(=O)N[C@@H](CCSC)C(=O)N[C@@H](Cc4c[nH]c5ccccc45)C(=O)N[C@@H]([C@@H](C)O)C(=O)N3)NC2=O)C(=O)N[C@@H](CCCCN)C(=O)N[C@@H](CC(C)C)C(=O)N[C@@H](Cc2c[nH]c3ccccc23)C(=O)N1)C(N)=O` [compound 127], the IC50 on hNav1.5 was 16.7 µM; at hNav1.7, 2.35 µM; on hNav1.3, over 5 µM; at hNav1.4, over 5 µM. For the same compound, at hNav1.4, the Nav1.4/Nav1.7 worked out at 2.

As to `CC[C@H](C)[C@H](NC(=O)[C@H](CC(=O)O)NC(=O)[C@H](CCCCN)NC(=O)[C@H](CCCNC(=N)N)NC(=O)[C@@H]1CSSC[C@@H]2NC(=O)[C@H](C)NC(=O)[C@H](CCCNC(=N)N)NC(=O)[C@H](CCCCN)NC(=O)[C@H](CO)NC(=O)[C@H](CC(=O)O)NC(=O)[C@@H]3CSSC[C@H](NC(=O)[C@H](CCC(=O)O)NC(=O)[C@H](CC(C)C)NC(=O)CNC(=O)[C@H](CCC(=O)O)NC(=O)[C@H](CSSC[C@H](NC(=O)[C@@H](N)Cc4ccc(O)cc4)C(=O)N[C@@H](CCC(N)=O)C(=O)N[C@@H](CCCCN)C(=O)N[C@@H](Cc4c[nH]c5ccccc45)C(=O)N[C@@H](CCSC)C(=O)N[C@@H](Cc4c[nH]c5ccccc45)C(=O)N[C@@H]([C@@H](C)O)C(=O)N3)NC2=O)C(=O)N[C@@H](CCCCN)C(=O)N[C@@H](CC(C)C)C(=O)N[C@@H](Cc2c[nH]c3ccccc23)C(=O)N1)C(N)=O` [compound 128], the concentration for half-maximal inhibition (IC50) at hNav1.5 is 13.9 µM; on hNav1.7, 1.34 µM; on hNav1.3 it was over 5 µM; on hNav1.4, over 5 µM. Also, the Nav1.4/Nav1.7 on hNav1.4 was 4.

`CC[C@H](C)[C@H](NC(=O)[C@H](CC(C)C)NC(=O)[C@H](CCCCN)NC(=O)[C@H](CCCNC(=N)N)NC(=O)[C@@H]1CSSC[C@@H]2NC(=O)[C@H](C)NC(=O)[C@H](CCCNC(=N)N)NC(=O)[C@H](CCCCN)NC(=O)[C@H](CO)NC(=O)[C@H](CC(=O)O)NC(=O)[C@@H]3CSSC[C@H](NC(=O)[C@H](CCC(=O)O)NC(=O)[C@H](CC(C)C)NC(=O)CNC(=O)[C@H](CCC(=O)O)NC(=O)[C@H](CSSC[C@H](NC(=O)[C@@H](N)Cc4ccc(O)cc4)C(=O)N[C@@H](CCC(N)=O)C(=O)N[C@@H](CCCCN)C(=O)N[C@@H](Cc4c[nH]c5ccccc45)C(=O)N[C@@H](CCSC)C(=O)N[C@@H](Cc4c[nH]c5ccccc45)C(=O)N[C@@H]([C@@H](C)O)C(=O)N3)NC2=O)C(=O)N[C@@H](CCCCN)C(=O)N[C@@H](CC(C)C)C(=O)N[C@@H](Cc2c[nH]c3ccccc23)C(=O)N1)C(N)=O` [compound 132]: the IC50 at hNav1.5 is 6.7 µM; at hNav1.7, 0.41 µM; at hNav1.3 it was over 5 µM; at hNav1.4, over 5 µM. The Nav1.4/Nav1.7 on hNav1.4 is recorded as 12.

The values are drawn from patent US9636418B2 (priority 2013, dated 2017).
